In brackets after ≈: the same amount, converted by molar mass. Read-outs that look alike come from different tables or passages of the source. Non-standard residues stand in square brackets, D forms with d. Residues, ends and D or L forms follow the SMILES beside them. No end group written: not given here. *: point of attachment. Hyp = O=C(O)[C@@H]1C[C@@H](O)CN1; hArg = N=C(N)NCCCC[C@H](N)C(=O)O; β3hR = N=C(N)NCCC[C@H](N)CC(=O)O; Orn = NCCC[C@H](N)C(=O)O; NHPr = CCCN*
Key:
[1] = mouse, serum, Half-life in 25% mouse serum, 25% aqueous mouse serum, 37° C., 75 μg/mL peptide
Description: (§2) For this, the peptides and peptidomimetics were dissolved in water, mouse serum was added and the peptide concentration was adjusted to 75 μg/mL. While shaking continuously, the mixture was incubated at 37° C. After 0, 30, 60, 120, 240 and 360 minutes, in each case an aliquot was taken and mixed with 15% aqueous trichloroacetic acid (Carl Roth GmbH & Co. KG; Karlsruhe, Germany). After incubation on ice for a further 10 minutes, the precipitated serum proteins were centrifuged off (5 min, 13400 rpm, MiniSpin, Eppendorf AG, Hamburg, Germany). The supernatant was removed, neutralized with 1 mol/L aqueous sodium hydroxide solution (Fluke Chemie GmbH, Buchs, Switzerland) and stored at −20° C. until analysis.
(§3) The supernatants were analyzed by RP-HPLC with a linear acetonitrile gradient (Biosolve BV, Valkenswaard, The Netherlands) in the presence of 0.1% trifluoroacetic acid (TFA, UV-grade, Fluka Chemie GmbH, Buchs, Switzerland) as ion-pairing reagent. The fractions were co-crystallized with α-cyanohydroxycinnamic acid (Bruker Daltonik GmbH; Bremen, Germany) as matrix (5.3 mg/mL in 50% acetonitrile in 0.1% aqueous TFA) and were analyzed with a tandem mass spectrometer (MALDI-TOF/TOF-MS, 4700 Proteomics Analyzer; Applied Biosystems GmbH, Weiterstadt, Germany) in the positive-ion reflector mode. The proportion of intact peptides and their degradation products or metabolites could thus be identified and quantified at the individual time points. The control used was 25% aqueous mouse serum, which was analyzed in parallel for the same time intervals.

[2] = tested on: E. coli BL21 A1; assay type: cell-based, Escherichia coli
Procedure, shortened: (§1)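 Broth microdilution in 1% TSB with twofold peptide series, final 128 μg/mL to 62.5 ng/mL, against 5×10^6 bacteria/mL stock suspension added 1:1. Incubated 20 h at 37 °C, growth read by absorbance at 595 nm; MIC is the lowest concentration with no growth, determined in triplicate.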

[3] = tested on: M. luteus 10240; assay: Growth inhibition assay (microdilution MIC); assay type: cell-based, Micrococcus luteus
Procedure, shortened: as §1

[4] = mouse, serum
Description: as §2, §3

MIC E. coli BL21 A1 ([2]; BL21, 20 h) | MIC M. luteus 10240 ([3]; 10240, 20 h) | Compound | half-life [1] | further results
 |  | CC[C@H](C)[C@H](NC(=O)[C@H](CCCNC(=N)N)NC(=O)[C@H](CCCNC(=N)N)NC(=O)[C@@H]1CCCN1C(=O)[C@@H]1CCCN1C(=O)[C@H](CCCNC(=N)N)NC(=O)[C@@H]1CCCN1C(=O)[C@H](CCCNC(=N)N)NC(=O)[C@@H]1CCCN1C(=O)[C@H](CC(C)C)NC(=O)[C@H](Cc1ccc(O)cc1)NC(=O)[C@@H]1CCCN1C(=O)[C@@H]1CCCN1C(=O)[C@H](CCCCN)NC(=O)[C@H](CC(=O)O)NC(=O)[C@@H](N)C(C)C)C(=O)N[C@@H](Cc1ccc(O)cc1)C(=O)N[C@@H](CC(N)=O)C(=O)N[C@@H](CCCN)C(N)=O [SEQ ID NO. 50, VDKPPYLPRPRPPRRIYNO-NH2] (H-VDKPPYLPRPRPPRRIYN[Orn]-NH2) | 1.5 h | 
 |  | CCCNC(=O)[C@H](CCCNC(=N)N)NC(=O)[C@H](CC(N)=O)NC(=O)[C@H](Cc1ccc(O)cc1)NC(=O)[C@@H](NC(=O)[C@H](CCCNC(=N)N)NC(=O)[C@H](CCCNC(=N)N)NC(=O)[C@@H]1CCCN1C(=O)[C@@H]1CCCN1C(=O)[C@H](CCCNC(=N)N)NC(=O)[C@@H]1CCCN1C(=O)[C@H](CCCNC(=N)N)NC(=O)[C@@H]1CCCN1C(=O)[C@H](CC(C)C)NC(=O)[C@H](Cc1ccc(O)cc1)NC(=O)[C@@H]1CCCN1C(=O)[C@@H]1CCCN1C(=O)[C@H](CCCCN)NC(=O)[C@H](CC(=O)O)NC(=O)[C@@H](N)C(C)C)[C@@H](C)CC [SEQ ID NO. 58] (H-VDKPPYLPRPRPPRRIYNR-NHPr) | 2 h | 
 |  | CC[C@H](C)[C@H](NC(=O)[C@H](CCCN)NC(=O)[C@H](CCCNC(=N)N)NC(=O)[C@@H]1CCCN1C(=O)[C@@H]1CCCN1C(=O)[C@H](CCCNC(=N)N)NC(=O)[C@@H]1CCCN1C(=O)[C@H](CCCNC(=N)N)NC(=O)[C@@H]1CCCN1C(=O)[C@H](CC(C)C)NC(=O)[C@H](Cc1ccc(O)cc1)NC(=O)[C@@H]1CCCN1C(=O)[C@@H]1CCCN1C(=O)[C@H](CCCCN)NC(=O)[C@H](CC(=O)O)NC(=O)[C@@H](N)C(C)C)C(=O)N[C@@H](Cc1ccc(O)cc1)C(=O)N[C@@H](CC(N)=O)C(=O)N[C@@H](CCCNC(=N)N)C(N)=O [SEQ ID NO. 61, VDKPPYLPRPRPPROIYNR-NH2] (H-VDKPPYLPRPRPPR[Orn]IYNR-NH2) | 2 h | 
 |  | CC[C@H](C)[C@H](NC(=O)C[C@H](CCCNC(=N)N)NC(=O)[C@H](CCCNC(=N)N)NC(=O)[C@@H]1CCCN1C(=O)[C@@H]1CCCN1C(=O)[C@H](CCCNC(=N)N)NC(=O)[C@@H]1CCCN1C(=O)[C@H](CCCNC(=N)N)NC(=O)[C@@H]1CCCN1C(=O)[C@H](CC(C)C)NC(=O)[C@H](Cc1ccc(O)cc1)NC(=O)[C@@H]1CCCN1C(=O)[C@@H]1CCCN1C(=O)[C@H](CCCCN)NC(=O)[C@H](CC(=O)O)NC(=O)[C@@H](N)C(C)C)C(=O)N[C@@H](Cc1ccc(O)cc1)C(=O)N[C@@H](CC(N)=O)C(=O)N[C@@H](CCCNC(=N)N)C(N)=O [SEQ ID NO. 62] (H-VDKPPYLPRPRPPR[β3hR]IYNR-NH2) | 2.5 h | 
16 µg/mL | 16 µg/mL | H-VDKPPYLPRPRPPRRAYNR-NH2 [compound 44] |  | 
8 µg/mL | 16 µg/mL | H-VDKPPYLPRPRPPRRIANR-NH2 [compound 45] |  | 
8 µg/mL | 8 µg/mL | H-VDKPPYLPRPRPPRRIYAR-NH2 [compound 46] |  | 
32 µg/mL | 64 µg/mL | H-VDKPPYLPRPRPPRRIYN-NH2 [compound 27] |  | 
 |  | H-VDKPPYLPRPRPPRRIYN-OH [SEQ ID NO. 28] | 2 h | MIC E. coli BL21 A1 ([2]; 1% TSB, 20 h at 37° C.): 64 µg/mL
32 µg/mL | 16 µg/mL | H-VDKPPYLPRPRPPRRIYNA-NH2 [compound 47] |  | 
4 µg/mL | 4 µg/mL | H-VDKPPYLPRPRPPRRIYPQPRPPHPRL-NH2 [compound 49] |  | 
8 µg/mL | 8 µg/mL | H-VDKPPYLPRPRPPRRIYQR-NH2 [compound 79] |  | 
8 µg/mL | 16 µg/mL | H-VDKPPYLPRPRPPRRLYNR-NH2 [compound 78] |  | 
8 µg/mL | 16 µg/mL | H-VDKPPYLPRPRPRPRIYNR-NH2 [compound 59] |  | 
128 µg/mL | 64 µg/mL | H-VDKPPYLPRPTPPRRIYNNR-OH [compound 4] |  | 
128 µg/mL | 16 µg/mL | H-VDKPPYLPRPYPPRRIYNR-OH [compound 10] |  | 
16 µg/mL | 8 µg/mL | H-VDRPPYLPRPRPPRRIYNR-NH2 [compound 76] |  | 
16 µg/mL | 8 µg/mL | H-VEKPPYLPRPRPPRRIYNR-NH2 [compound 75] |  | 
 |  | VDKPPYLPRPRPPRPIYNR-NH2 [SEQ ID NO. 60] | 2 h | 
 |  | VDKPPYLPRPRPPRRIYNNR-OH [SEQ ID NO. 14] | < 0.5 h | 
 |  | VDKPPYLPRPRPPRRIYNR-OH [SEQ ID NO. 19] | < 0.5 h | 

Compound | MIC E. coli BL21 A1 ([2]; BL21, 20 h) | MIC M. luteus 10240 ([3]; 10240, 20 h) | half-life [1] | further results
CCCNC(=O)[C@H](CCCNC(=N)N)NC(=O)[C@H](CC(N)=O)NC(=O)[C@H](Cc1ccc(O)cc1)NC(=O)[C@@H](NC(=O)[C@H](CCCN)NC(=O)[C@H](CCCNC(=N)N)NC(=O)[C@@H]1CCCN1C(=O)[C@@H]1CCCN1C(=O)[C@H](CCCNC(=N)N)NC(=O)[C@@H]1CCCN1C(=O)[C@H](CCCNC(=N)N)NC(=O)[C@@H]1CCCN1C(=O)[C@H](CC(C)C)NC(=O)[C@H](Cc1ccc(O)cc1)NC(=O)[C@@H]1CCCN1C(=O)[C@@H]1CCCN1C(=O)[C@H](CCCCN)NC(=O)[C@H](CC(=O)O)NC(=O)[C@@H](N)C(C)C)[C@@H](C)CC [SEQ ID NO. 71, VDKPPYLPRPRPPROIYNR-NHC3H7] (H-VDKPPYLPRPRPPR[Orn]IYNR-NHPr) | 4 µg/mL (≈ 1.67 µM) |  | > 6 h | 
CC[C@H](C)[C@H](NC(=O)[C@@H]1C[C@@H](O)CN1C(=O)[C@H](CCCNC(=N)N)NC(=O)[C@@H]1CCCN1C(=O)[C@@H]1CCCN1C(=O)[C@H](CCCNC(=N)N)NC(=O)[C@@H]1CCCN1C(=O)[C@H](CCCNC(=N)N)NC(=O)[C@@H]1CCCN1C(=O)[C@H](CC(C)C)NC(=O)[C@H](Cc1ccc(O)cc1)NC(=O)[C@@H]1CCCN1C(=O)[C@@H]1CCCN1C(=O)[C@H](CCCCN)NC(=O)[C@H](CC(=O)O)NC(=O)[C@@H](N)C(C)C)C(=O)N[C@@H](Cc1ccc(O)cc1)C(=O)N[C@@H](CC(N)=O)C(=O)N[C@@H](CCCNC(=N)N)C(N)=O [compound 25] (H-VDKPPYLPRPRPPR[Hyp]IYNR-NH2) | 16 µg/mL (≈ 6.82 µM) | 8 µg/mL (≈ 3.41 µM) |  | half-life [4]: 4 h
CC[C@H](C)[C@H](NC(=O)[C@H](CCCCNC(=N)N)NC(=O)[C@H](CCCNC(=N)N)NC(=O)[C@@H]1CCCN1C(=O)[C@@H]1CCCN1C(=O)[C@H](CCCNC(=N)N)NC(=O)[C@@H]1CCCN1C(=O)[C@H](CCCNC(=N)N)NC(=O)[C@@H]1CCCN1C(=O)[C@H](CC(C)C)NC(=O)[C@H](Cc1ccc(O)cc1)NC(=O)[C@@H]1CCCN1C(=O)[C@@H]1CCCN1C(=O)[C@H](CCCCN)NC(=O)[C@H](CC(=O)O)NC(=O)[C@@H](N)C(C)C)C(=O)N[C@@H](Cc1ccc(O)cc1)C(=O)N[C@@H](CC(N)=O)C(=O)N[C@@H](CCCCNC(=N)N)C(N)=O [compound 67] (H-VDKPPYLPRPRPPR[hArg]IYN[hArg]-NH2) | 4 µg/mL (≈ 1.65 µM) | 4 µg/mL (≈ 1.65 µM) |  | half-life [4]: 0.917 h
H-VDKPPYLPRPRPPRRIYNN-NH2 [compound 51] | 16 µg/mL | 64 µg/mL | 2 h | 
H-VDKPPYLPRPRPPRRIYNRN-NH2 [compound 17] | 16 µg/mL | 128 µg/mL | 0.75 h | 
VDKGSYLPRPTPPRPIYNRN-NH2 [compound 91] | 16 µg/mL |  |  | MIC M. luteus 10240 ([3]; 1% TSB, 20 h at 37° C.): 128 µg/mL
VDKPPYLPRPRPPRPIYNR-NH2 [compound 60] | 8 µg/mL | 64 µg/mL |  | 
